Measurements: patent US20090018134A1, “Compounds - 945” (AstraZeneca AB, priority 2007, published 2009)

Target: T1, mTOR (Homo sapiens, UniProt P42345)
T1 construct: FLAG; made in house
Test: In Vitro mTOR Kinase Assay (Echo), Test (a)(ii)
Type: biochemical
Settings: table of enzyme assay Test (a)(ii); read-out: Test (a)(ii) IC50
Outline: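 AlphaScreen read-out: biotinylated substrate phosphorylation was detected with anti-p70 S6K (T389) 1A5 antibody, Protein A acceptor and streptavidin donor beads after overnight dark incubation at room temperature. Enzyme was FLAG-mTOR 1362-2549 from stable HEK293 cells.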

T1 sequence (P42345 1362-2549): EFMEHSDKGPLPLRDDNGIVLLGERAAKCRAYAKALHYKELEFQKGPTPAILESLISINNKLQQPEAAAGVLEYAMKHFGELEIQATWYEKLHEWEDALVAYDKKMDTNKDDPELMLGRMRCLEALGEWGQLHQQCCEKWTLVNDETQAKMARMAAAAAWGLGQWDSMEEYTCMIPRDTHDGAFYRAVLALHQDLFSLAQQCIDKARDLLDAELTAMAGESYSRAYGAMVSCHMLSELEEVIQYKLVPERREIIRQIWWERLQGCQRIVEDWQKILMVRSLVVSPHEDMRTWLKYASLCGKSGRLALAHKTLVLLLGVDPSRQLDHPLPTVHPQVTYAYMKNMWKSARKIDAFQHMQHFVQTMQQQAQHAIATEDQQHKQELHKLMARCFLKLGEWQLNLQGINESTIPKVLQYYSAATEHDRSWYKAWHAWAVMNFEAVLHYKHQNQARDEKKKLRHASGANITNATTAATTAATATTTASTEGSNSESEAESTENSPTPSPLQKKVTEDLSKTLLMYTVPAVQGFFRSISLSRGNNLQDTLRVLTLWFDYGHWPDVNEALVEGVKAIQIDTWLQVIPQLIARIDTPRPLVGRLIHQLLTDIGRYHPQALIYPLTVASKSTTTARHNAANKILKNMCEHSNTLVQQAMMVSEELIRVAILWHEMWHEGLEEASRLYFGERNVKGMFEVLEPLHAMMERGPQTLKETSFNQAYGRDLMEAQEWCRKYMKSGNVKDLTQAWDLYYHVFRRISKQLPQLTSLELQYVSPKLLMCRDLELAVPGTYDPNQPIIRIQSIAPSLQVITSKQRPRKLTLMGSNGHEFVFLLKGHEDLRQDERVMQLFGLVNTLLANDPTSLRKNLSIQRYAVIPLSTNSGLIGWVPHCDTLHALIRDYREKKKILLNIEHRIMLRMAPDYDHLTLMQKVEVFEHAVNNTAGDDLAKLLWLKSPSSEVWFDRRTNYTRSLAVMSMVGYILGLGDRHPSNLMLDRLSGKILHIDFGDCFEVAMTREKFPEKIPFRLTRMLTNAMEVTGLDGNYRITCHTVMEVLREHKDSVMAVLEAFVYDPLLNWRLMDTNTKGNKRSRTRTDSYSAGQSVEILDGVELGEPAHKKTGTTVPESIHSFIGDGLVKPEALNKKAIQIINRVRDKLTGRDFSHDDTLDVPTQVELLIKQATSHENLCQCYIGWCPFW

`CNC(=O)Nc1ccc(-c2nc(N3CCOC[C@@H]3C)cc(C3(S(=O)(=O)c4cccnc4C(=O)N(C)C)CC3)n2)cc1` [Example 50, N,N-Dimethyl-3-[1-[2-[4-(methylcarbamoylamino)phenyl]-6-[(3S)-3-methylmorpholin-4-yl]pyrimidin-4-yl]cyclopropyl]sulfonylpyridine-2-carboxamide] and `C[C@H]1COCCN1c1cc(C2(S(=O)(=O)c3cccnc3C(=O)N(C)C)CC2)nc(-c2ccc(NC(=O)NC3CC3)cc2)n1` [Example 50a] are within 1.5-fold of each other in IC50: 10.4 nM for the first, 7.94 nM for the second.

`CNC(=O)Nc1ccc(-c2nc(N3CCOC[C@@H]3C)cc(C3(S(=O)(=O)CCOC)CC3)n2)cc1` [Example 51, 1-[4-[4-[1-(2-Methoxyethylsulfonyl)cyclopropyl]-6-[(3S)-3-methylmorpholin-4-yl]pyrimidin-2-yl]phenyl]-3-methylurea] and `CNC(=O)Nc1ccc(-c2nc(N3CCOC[C@@H]3C)cc(C3(S(=O)(=O)c4cn(C)nc4C)CC3)n2)cc1` [Example 55, 1-[4-[4-[1-(1,3-Dimethylpyrazol-4-yl)sulfonylcyclopropyl]-6-[(3S)-3-methylmorpholin-4-yl]pyrimidin-2-yl]phenyl]-3-methylurea] are within 1.5-fold of each other in IC50: 3.32 nM for the first, 2.96 nM for the second.

First: C[C@H]1COCCN1c1cc(C2(S(C)(=O)=O)CC2)nc(-c2ccc(NC(=O)NC3CC3)c(F)c2)n1 [Example 52, 3-cyclopropyl-1-[2-fluoro-4-[4-[(3S)-3-methylmorpholin-4-yl]-6-(1-methylsulfonylcyclopropyl)pyrimidin-2-yl]phenyl]urea]
Second: CNC(=O)Nc1ccc(-c2nc(N3CCOC[C@@H]3C)cc(C3(S(C)(=O)=O)CC3)n2)cc1F [Example 52a, 1-[2-fluoro-4-[4-[(3S)-3-methylmorpholin-4-yl]-6-(1-methylsulfonylcyclopropyl)pyrimidin-2-yl]phenyl]-3-methylurea]
The IC50 of the first is 1.8-fold higher: 18.4 nM for the first, 10.3 nM for the second. The second is the more potent here.

`CCNC(=O)Nc1ccc(-c2nc(N3CCOC[C@@H]3C)cc(C3(S(C)(=O)=O)CC3)n2)cc1F` [Example 52b, 3-ethyl-1-[2-fluoro-4-[4-[(3S)-3-methylmorpholin-4-yl]-6-(1-methylsulfonylcyclopropyl)pyrimidin-2-yl]phenyl]urea] and `C[C@H]1COCCN1c1cc(C2(S(C)(=O)=O)CC2)nc(-c2ccc(NC(=O)NCCO)c(F)c2)n1` [Example 52c, 1-[2-fluoro-4-[4-[(3S)-3-methylmorpholin-4-yl]-6-(1-methylsulfonylcyclopropyl)pyrimidin-2-yl]phenyl]-3-(2-hydroxyethyl)urea] are within 1.5-fold of each other in IC50: 30.7 nM for the first, 29.6 nM for the second.

`CNC(=O)Nc1ccc(-c2nc(N3CCOC[C@@H]3C)cc(C3(S(=O)(=O)c4cccc(F)c4)CC3)n2)cc1` [Example 53, 1-[4-[4-[1-(3-Fluorophenyl)sulfonylcyclopropyl]-6-[(3S)-3-methylmorpholin-4-yl]pyrimidin-2-yl]phenyl]-3-methylurea] and `CCNC(=O)Nc1ccc(-c2nc(N3CCOC[C@@H]3C)cc(C3(S(=O)(=O)c4cccc(F)c4)CC3)n2)cc1` [Example 53e, 1-ethyl-3-[4-[4-[1-(3-fluorophenyl)sulfonylcyclopro-pyl]-6-[(3S)-3-methylmorpholin-4-yl]pyrimidin-2-yl]phenyl]urea] are within 1.5-fold of each other in IC50: 2.18 nM for the first, 1.98 nM for the second.

Compared with `C[C@H]1COCCN1c1cc(C2(S(=O)(=O)c3cccc(F)c3)CC2)nc(-c2ccc(NC(=O)NC3CC3)cc2)n1` [Example 53a, 3-cyclopropyl-1-[4-[4-[1-(3-fluorophenyl)sulfonylcyclopro-pyl]-6-[(3S)-3-methylmorpholin-4-yl]pyrimidin-2-yl]phenyl]urea], `C[C@H]1COCCN1c1cc(C2(S(=O)(=O)c3cccc(F)c3)CC2)nc(-c2ccc(NC(=O)NCCO)cc2)n1` [Example 53b, 1-[4-[4-[1-(3-fluorophenyl)sulfonylcyclopro-pyl]-6-[(3S)-3-methylmorpholin-4-yl]pyrimidin-2-yl]phenyl]-3-(2-hydroxyethyl)urea] is 3.4-fold lower in IC50: 2.29 nM for the first, 0.669 nM for the second. The second is the more potent here.

Going from `C[C@H]1COCCN1c1cc(C2(S(=O)(=O)c3cccc(F)c3)CC2)nc(-c2ccc(NC(=O)NCCF)cc2)n1` [Example 53c, 3-(2-fluoroethyl)-1-[4-[4-[1-(3-fluorophenyl)sulfonylcyclopro-pyl]-6-[(3S)-3-methylmorpholin-4-yl]pyrimidin-2-yl]phenyl]urea] to `C[C@H]1COCCN1c1cc(C2(S(=O)(=O)c3cccc(F)c3)CC2)nc(-c2ccc(NC(=O)NCC(F)F)cc2)n1` [Example 53d, 3-(2,2-difluoroethyl)-1-[4-[4-[1-(3-fluorophenyl)sulfonylcyclopro-pyl]-6-[(3S)-3-methylmorpholin-4-yl]pyrimidin-2-yl]phenyl]urea], the IC50 rises from 0.688 nM to 3.1 nM (4.5-fold). The first is the more potent here.

First: C[C@H]1COCCN1c1cc(C2(S(=O)(=O)c3cccc(F)c3)CC2)nc(-c2ccc(NC(=O)Nc3cnn(C)c3)cc2)n1 [Example 53f, 1-[4-[4-[1-(3-fluorophenyl)sulfonylcyclopro-pyl]-6-[(3S)-3-methylmorpholin-4-yl]pyrimidin-2-yl]phenyl]-3-(1-methylpyrazol-4-yl)urea]
Second: Cc1ccccc1S(=O)(=O)C1(c2cc(N3CCOC[C@@H]3C)nc(-c3ccc(NC(=O)Nc4cnn(C)c4)cc3)n2)CC1 [Example 54f, 1-[4-[4-[(3S)-3-methylmorpholin-4-yl]-6-[1-(2-methylphenyl)sulfonylcyclo-propyl]pyrimidin-2-yl]phenyl]-3-(1-methylpyrazol-4-yl)urea]
The IC50 of the first is 1.7-fold lower: 6.34 nM for the first, 10.7 nM for the second. The first is the more potent here.

Compared with `CNC(=O)Nc1ccc(-c2nc(N3CCOC[C@@H]3C)cc(C3(S(=O)(=O)c4ccccc4C)CC3)n2)cc1` [Example 54, 3-Methyl-1-[4-[4-[(3S)-3-methylmorpholin-4-yl]-6-[1-(2-methylphenyl)sulfonylcyclopropyl]pyrimidin-2-yl]phenyl]urea], `CCNC(=O)Nc1ccc(-c2nc(N3CCOC[C@@H]3C)cc(C3(S(=O)(=O)c4ccccc4C)CC3)n2)cc1` [Example 54e, 1-ethyl-3-[4-[4-[(3S)-3-methylmorpholin-4-yl]-6-[1-(2-methylphenyl)sulfonylcyclo-propyl]pyrimidin-2-yl]phenyl]urea] is 3.5-fold higher in IC50: 2.17 nM for the first, 7.62 nM for the second.

Compared with `Cc1ccccc1S(=O)(=O)C1(c2cc(N3CCOC[C@@H]3C)nc(-c3ccc(NC(=O)NC4CC4)cc3)n2)CC1` [Example 54a, 3-cyclopropyl-1-[4-[4-[(3S)-3-methylmorpholin-4-yl]-6-[1-(2-methylphenyl)sulfonylcyclo-propyl]pyrimidin-2-yl]phenyl]urea], `Cc1ccccc1S(=O)(=O)C1(c2cc(N3CCOC[C@@H]3C)nc(-c3ccc(NC(=O)NCCO)cc3)n2)CC1` [Example 54b, 3-(2-hydroxyethyl)-1-[4-[4-[(3S)-3-methylmorpholin-4-yl]-6-[1-(2-methylphenyl)sulfonylcyclo-propyl]pyrimidin-2-yl]phenyl]urea] is 2.9-fold lower in IC50: 9.18 nM for the first, 3.17 nM for the second. The second is the more potent here.

Going from `Cc1ccccc1S(=O)(=O)C1(c2cc(N3CCOC[C@@H]3C)nc(-c3ccc(NC(=O)NCCF)cc3)n2)CC1` [Example 54c, 3-(2-fluoroethyl)-1-[4-[4-[(3S)-3-methylmorpholin-4-yl]-6-[1-(2-methylphenyl)sulfonylcyclo-propyl]pyrimidin-2-yl]phenyl]urea] to `Cc1ccccc1S(=O)(=O)C1(c2cc(N3CCOC[C@@H]3C)nc(-c3ccc(NC(=O)NCC(F)F)cc3)n2)CC1` [Example 54d, 3-(2,2-difluoroethyl)-1-[4-[4-[(3S)-3-methylmorpholin-4-yl]-6-[1-(2-methylphenyl)sulfonylcyclo-propyl]pyrimidin-2-yl]phenyl]urea], the IC50 rises from 4.53 nM to 8.82 nM (1.9-fold). The first is the more potent here.
